Source: paper PMC10294875, “Ether Derivatives of Naringenin and Their Oximes as Factors Modulating Bacterial Adhesion” (Antibiotics, 2023)

Key:
HT-29 cell line = assay: SRB assay, antiproliferative activity against HT-29; format: cell-based, human; settings: Homo sapiens; 2 h incubation, SRB assay, HT-29
Method: (§1) The human adenocarcinoma cell line, HT-29 (ATCC HTB-38), was cultured in αMEM medium (IITD PAN) supplemented with 10% fetal bovine serum, FBS (Sigma-Aldrich, Taufkirchen, Germany), 100 U/mL penicillin, 100 µg/mL streptomycin antibiotic solution (Sigma-Aldrich, Taufkirchen, Germany), and 2 mM glutamine solution (Sigma-Aldrich, Taufkirchen, Germany). Cells from less than 20 passages were used for the study. In turn, preadipocytes from mouse embryos with the morphology of fibroblast cells, line 3T3-L1 (ATCC CL-173), were cultured in DMEM high-glucose medium (Life Technologies Corporation, Carlsbad, CA, USA) with the same supplements as above. Cells from less than 14 passages were used for the study. Both tested cell lines were grown at 37 °C in 5% CO2.
(§2) The effect of O-alkyl derivatives of naringenin and their oximes on eukaryotic cells was checked using a slightly modified SRB test described earlier. Firstly, HT-29 (1 × 10^5 cells/mL) and 3T3-L1 (5 × 10^4 cells/mL) cell lines were incubated in adherent microtiter plates under the conditions described above. The cells were then treated for 2 h with the tested compounds 1a–10a and 1b–10b at concentrations of 1, 5, 10, 25, 50, 75, and 100 µg/mL each. After this time, the medium was removed and replaced with one containing 50% (wt/vol) trichloroacetic acid (TCA; Sigma-Aldrich, Taufkirchen, Germany). Following 1 h of incubation at 4 °C, the plate was rinsed with water, and then an acidic solution of 0.4% sulforhodamine B (SRB) (Sigma-Aldrich, Taufkirchen, Germany), was added to the dried wells and incubated in the dark for half an hour. At the end of this time, the SRB solution was replaced by 1% (vol/vol) acetic acid, and the stained protein precipitate was dissolved in 10 mM Tris base solution (pH 10.5). Absorbance was measured at 560 nm in a plate reader (GloMax Discover Microplate Reader, Promega).
(§3) The cytotoxic effect of O-alkyl derivatives of naringenin and their oximes on eukaryotic cells was expressed as the concentration of the tested compounds at which 50% growth inhibition of the tested cell lines was observed. Values were presented in the form of the survival index (SI)–IC50. All determinations were repeated in three independent experiments, each performed in three technical replicates. Moreover, the effect of DMSO (Sigma-Aldrich, Taufkirchen, Germany), the solvent present in all the initial solutions of the tested compounds, on the growth of the cell lines used in the study was also verified.

3T3-L1 cell line = assay: SRB assay, antiproliferative activity against 3T3-L1; format: cell-based, mouse; settings: Mus musculus; 2 h incubation, SRB assay, 3T3-L1
Method: as §1, §2, §3

[1] = test system: Escherichia coli K12 (ATCC 10798); assay: Adhesion assay, static conditions: E. coli to 3T3-L1 cell line; format: cell-based
Method: The study used two reference strains, Escherichia coli K12 (ATCC 10798) and Enterococcus faecalis (ATCC 29212), obtained from the American Type Culture Collection. Both strains were stored in trypticase soy broth (TSB; OXOID, Basingstoke, UK) with the addition of 30% glycerol at −70 °C in the museum resources of the Department of Microbiology at the Wroclaw Medical University.
For studies determining the interaction of bacteria with eukaryotic cells, suspensions of the tested strains were prepared in Luria broth (LB, Becton, Dickinson and Company, USA) medium with a bacterial density of 6 × 10^8 CFU/mL.
The adhesion ability of the tested bacterial strains to HT-29 and 3T3-L1 cell lines was determined by an in vitro adhesion assay as described previously. Eukaryotic cells were infected with prokaryotic cells in the presence of the examined compounds in pre-selected concentrations at an MOI (multiplicity of infection) ratio of 50. Cells were exposed to the tested strains and compounds for 2 h. After this time, unbound bacteria were removed by washing with PBS (Life Technologies Corporation, Carlsbad, CA, USA). The lysates acquired by cell lysis (0.5% Triton X-100 in LB): 90 min, 37 °C, 5% CO2 atmosphere, were then seeded onto TSA and MC media for E. faecalis and E. coli, respectively. The assays were performed in at least three independent experiments (cells from subsequent passages), each in triplicate. A control without tested compounds was set for each strain.

[2] = test system: Escherichia coli K12 (ATCC 10798); assay: Bioflux microfluidic adhesion: E. coli to 3T3-L1 cell line; format: cell-based; settings: 50 µg/mL, control 0.37 ± 0.13
Method: (§4) Determination of the impact of a dynamic medium flow on the adhesive capacity of bacteria was performed using the Bioflux 1000Z (Fluxion, San Francisco, CA, USA) with a coupled microscope environmental chamber (Pecton Incubator XL S1, Carl Zeiss, Jena, Germany), enabling the maintenance of 37 °C and microaerophilic conditions. At the very beginning, all channels of dedicated microfluidic plates (Fluxion, San Francisco, CA, USA) were flushed with 100 µL of αMEM or DMEM high-glucose medium with supplements (further named “cell line medium”; for details of the supplementation see “Cell culture procedure”) applying an intensive flow of 10 dyne/cm^2 for 10 s. After unblocking the lumen of the channels, the inlet and outlet wells were emptied, and 20 µL of 100 µg/mL fibronectin solution (Sigma-Aldrich, Taufkirchen, Germany) was added to each inlet channel. The medium was turned in the outlet direction at a flow rate of 1 dyne/cm^2 for 1 min. After this step, the plate was left for a 1 h incubation period to allow fibronectin to be absorbed on the surface of the microcapillaries. […] After completing this stage, photographs of the microcapillaries containing the tested biological materials were taken using an inverted fluorescence microscope (GabH, Jena, Germany) and the Bioflux Montage software (Fluxion, San Francisco, CA, USA). […]

[3] = test system: Escherichia coli K12 (ATCC 10798); assay: Bioflux microfluidic adhesion: E. coli to HT-29 cell line; format: cell-based; settings: 50 µg/mL, control 0.65 ± 0.07
Method: as §4

[4] = test system: Enterococcus faecalis (ATCC 29212); assay: Bioflux microfluidic adhesion: E. faecalis to 3T3-L1 cell line; format: cell-based; settings: 50 µg/mL, control 0.29 ± 0.11
Method: as §4

[5] = test system: Enterococcus faecalis (ATCC 29212); assay: Bioflux microfluidic adhesion: E. faecalis to HT-29 cell line; format: cell-based; settings: 50 µg/mL, control 1.55 ± 0.15
Method: as §4

cell membranes = test system: cell membranes; set-up: method as in PMID 10839220; settings: cited from earlier work

Row | Compound | IC50 (HT-29 cell line) [µg/mL] | IC50 (3T3-L1 cell line) [µg/mL] | effect on adhesion of E. coli to 3T3-L1 (in words) [1] | BB/EC ratio (area of bacterial biomass adhered to the surface of the eukaryotic cells) [2] | BB/EC ratio [3] | BB/EC ratio [4] | BB/EC ratio [5] | concentration at which the membrane-solidifying effect is revealed (cell membranes) [µg/mL]
1 | CCCCCCCCCOc1ccc([C@@H]2CC(=NO)c3c(O)cc(OCCCCCCCCC)cc3O2)cc1 [Compound 8b, 7,4’-di-O-nonylnaringenin oxime] | > 100 | > 100 | strongly enhance | 0.6 ± 0.12 | 1.03 ± 0.06 | 0.28 ± 0.15 | 1.36 ± 0.08 | 
2 | O=C1C[C@@H](c2ccc(O)cc2)Oc2cc(O)cc(O)c21 [NG, naringenin] | > 100 | > 100 |  |  |  |  |  | ≥ 2.5
